Key:
TLR9 = target: T1, TLR9 (Homo sapiens, UniProt Q9NR96); assay: Human PBMC cell-based assay, TLR9 agonist ODN-2216 stimulation, cytokine (IL-6 and IFNα) readout; conditions: human PBMCs, ODN-2216 3 μM, 6 hours; Table 26; read-out: TLR-9 EC50
T1 construct: lymphocytes, monocytes and dendritic cells that express TLR7, TLR8 and TLR9; endogenous in cells; host or cells: human PBMCs from healthy donors
T1 sequence (Q9NR96 26-1032): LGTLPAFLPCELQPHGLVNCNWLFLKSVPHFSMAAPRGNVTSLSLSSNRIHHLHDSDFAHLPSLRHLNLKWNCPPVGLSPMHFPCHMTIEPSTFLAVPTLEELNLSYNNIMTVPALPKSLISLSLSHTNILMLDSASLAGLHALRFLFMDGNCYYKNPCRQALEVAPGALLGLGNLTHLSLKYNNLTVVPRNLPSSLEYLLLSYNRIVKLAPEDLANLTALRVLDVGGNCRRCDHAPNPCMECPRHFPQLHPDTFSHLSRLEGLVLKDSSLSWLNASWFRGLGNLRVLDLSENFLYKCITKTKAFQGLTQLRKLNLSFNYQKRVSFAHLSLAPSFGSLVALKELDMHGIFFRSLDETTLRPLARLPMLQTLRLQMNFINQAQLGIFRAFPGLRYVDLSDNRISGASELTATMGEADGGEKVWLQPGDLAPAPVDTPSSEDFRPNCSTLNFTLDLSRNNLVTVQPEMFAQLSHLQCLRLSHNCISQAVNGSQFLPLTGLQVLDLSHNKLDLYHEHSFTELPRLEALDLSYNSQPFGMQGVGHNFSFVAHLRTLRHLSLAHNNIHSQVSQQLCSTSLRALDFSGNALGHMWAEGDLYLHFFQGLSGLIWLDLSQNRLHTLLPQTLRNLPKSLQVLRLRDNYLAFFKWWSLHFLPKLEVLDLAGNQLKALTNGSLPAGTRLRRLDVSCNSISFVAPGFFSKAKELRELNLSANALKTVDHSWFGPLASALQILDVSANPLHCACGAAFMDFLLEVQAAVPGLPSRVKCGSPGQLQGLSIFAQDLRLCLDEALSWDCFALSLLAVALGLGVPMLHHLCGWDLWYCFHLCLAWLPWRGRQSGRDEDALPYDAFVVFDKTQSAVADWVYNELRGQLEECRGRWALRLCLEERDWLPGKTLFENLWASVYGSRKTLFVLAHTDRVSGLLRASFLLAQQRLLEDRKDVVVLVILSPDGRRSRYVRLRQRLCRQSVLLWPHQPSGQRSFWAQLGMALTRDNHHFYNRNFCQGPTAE
Procedure, shortened: (§1)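 Cryopreserved healthy-donor PBMCs (100,000 cells/well, RPMI-1640 + 10% FBS) preincubated 1 h at 37 °C with antagonist (10-point dose response), then stimulated 6 h with GS-986 (400 nM final, TLR7) or ODN-2216 (3 μM final, TLR9). Supernatant IL-6 and IFNα measured by electrochemiluminescence immunoassay; EC50 from sigmoidal fit.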

TLR7 = target: T2, TLR7 (Homo sapiens, UniProt Q9NYK1); assay: Human PBMC cell-based assay, TLR7 agonist GS-986 stimulation, cytokine (IL-6 and IFNα) readout; conditions: human PBMCs, GS-986 400 nM, 6 hours; Table 26; read-out: TLR-7 EC50
T2 construct: lymphocytes, monocytes and dendritic cells that express TLR7, TLR8 and TLR9; endogenous in cells; host or cells: human PBMCs from healthy donors
T2 sequence (Q9NYK1 27-1049): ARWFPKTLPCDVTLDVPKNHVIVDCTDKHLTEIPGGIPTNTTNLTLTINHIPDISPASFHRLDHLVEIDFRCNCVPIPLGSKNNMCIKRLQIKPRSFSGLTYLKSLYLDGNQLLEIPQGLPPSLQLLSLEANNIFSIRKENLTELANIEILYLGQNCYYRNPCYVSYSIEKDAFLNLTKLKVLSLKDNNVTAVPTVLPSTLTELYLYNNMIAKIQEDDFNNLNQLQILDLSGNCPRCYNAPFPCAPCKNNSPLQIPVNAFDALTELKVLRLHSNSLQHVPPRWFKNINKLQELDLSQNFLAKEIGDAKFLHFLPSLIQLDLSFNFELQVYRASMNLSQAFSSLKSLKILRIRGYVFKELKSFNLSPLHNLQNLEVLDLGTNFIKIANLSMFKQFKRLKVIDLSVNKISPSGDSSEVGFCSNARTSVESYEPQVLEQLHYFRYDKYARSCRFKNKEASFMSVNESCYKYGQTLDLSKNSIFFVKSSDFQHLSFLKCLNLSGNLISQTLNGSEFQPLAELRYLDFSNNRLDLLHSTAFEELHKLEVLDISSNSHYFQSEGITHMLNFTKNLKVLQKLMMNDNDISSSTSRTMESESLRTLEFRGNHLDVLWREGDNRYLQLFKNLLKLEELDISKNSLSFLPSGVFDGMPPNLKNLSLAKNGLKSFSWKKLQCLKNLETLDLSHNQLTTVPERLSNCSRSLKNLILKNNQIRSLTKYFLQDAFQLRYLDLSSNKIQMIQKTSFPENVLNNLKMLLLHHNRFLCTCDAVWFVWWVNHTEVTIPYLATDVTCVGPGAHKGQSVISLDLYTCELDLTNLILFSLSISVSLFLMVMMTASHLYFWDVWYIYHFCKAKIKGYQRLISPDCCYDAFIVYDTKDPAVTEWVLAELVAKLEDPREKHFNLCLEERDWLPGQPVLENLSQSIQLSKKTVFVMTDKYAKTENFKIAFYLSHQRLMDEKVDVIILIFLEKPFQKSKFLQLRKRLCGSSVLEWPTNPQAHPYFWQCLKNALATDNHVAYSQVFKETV
Procedure, shortened: as §1

| EC50 (TLR9) | EC50 (TLR7) | SMILES |
| --- | --- | --- |
| 18.2 nM | 39.8 nM | Cc1cc(-c2[nH]c3cc(-c4ccc(N5CCN(C(=O)CN(C)C)CC5)nc4)ccc3c2C)cc(C)n1 [Example 106, 2-(dimethylamino)-1-(4-(5-(2-(2,6-dimethylpyridin-4-yl)-3-methyl-1H-indol-6-yl)pyridin-2-yl)piperazin-1-yl)ethan-1-one] |
| 47.1 nM | 59.6 nM | Cc1cc(-c2[nH]c3cc(-c4ccc5c(n4)CCNC5)ccc3c2C)cc(C)n1 [Example 182] |
| 74.7 nM | 98.9 nM | Cc1cc(-c2[nH]c3cc(-c4cccc(C(=O)N5CCN6CCC5C6)c4)ccc3c2C)cc(C)n1 (stereo not drawn) [Example 127] |
| 784 nM | 222 nM | Cc1cc(-c2[nH]c3cc(C4CCNCC4)ccc3c2C(C)C)cc(C)n1 [Example 50, 2-(2,6-dimethylpyridin-4-yl)-3-isopropyl-6-(piperidin-4-yl)-1H-indole] |
| 3040 nM | 374 nM | COc1cc(-c2ccc3c(C)c(-c4cc(C)nc(C)c4)[nH]c3c2)ccn1 [Example 56, 2-(2,6-dimethylpyridin-4-yl)-6-(2-methoxypyridin-4-yl)-3-methyl-1H-indole] |
| 139 nM | 4.5 nM | Cc1cc(-c2[nH]c3cc(-c4ccc(N5CCNCC5)nc4)ccc3c2C)cn(C)c1=O [Example 94, 1,3-dimethyl-5-(3-methyl-6-(6-(piperazin-1-yl)pyridin-3-yl)-1H-indol-2-yl)pyridin-2(1H)-one] |
| 175 nM | 270 nM | Cc1cc(-c2[nH]c3cc(-c4nc(N5CCNCC5)no4)ccc3c2C)cc(C)n1 [Example 188, 5-[2-(2,6-dimethyl-4-pyridyl)-3-methyl-1H-indol-6-yl]-3-piperazin-1-yl-1,2,4-oxadiazole] |
| 1680 nM | 664 nM | Cc1c(-c2cn(C)c(=O)c3ccccc23)[nH]c2cc(-c3ccc(N4CCNCC4)nc3)ccc12 [Example 92] |
| 50.5 nM | 38.1 nM | Cc1cc(-c2[nH]c3cc(-c4cnc5c(c4)CNCC5)ccc3c2C)cc(C)n1 [Example 9] |
| 30 nM | 9.1 nM | Cc1cc(-c2[nH]c3cc(-c4ccc(C5=CCCNC5)nc4)ccc3c2C)cc(C)n1 [Example 162] |
| 120 nM | > 1000 nM | Cc1cc(-c2[nH]c3cc(-c4ccc(N5CCN(CC(F)F)CC5)nc4)ccc3c2C)cc(C)n1 [Example 141, 6-(6-(4-(2,2-difluoroethyl)piperazin-1-yl)pyridin-3-yl)-2-(2,6-dimethylpyridin-4-yl)-3-methyl-1H-indole] |
| 63.2 nM | 15.3 nM | Cc1cc(-c2[nH]c3cc(-c4cnc(N5CCNCC5)nc4)ccc3c2C)cc(C)n1 [Example 65] |
| 232 nM | 92 nM | Cc1cc(-c2[nH]c3cc(-c4cn(C5CCNCC5)nn4)ccc3c2C)cc(C)n1 [Example 72, 2-(2,6-dimethylpyridin-4-yl)-3-methyl-6-(1-(piperidin-4-yl)-1H-1,2,3-triazol-4-yl)-1H-indole] |
| 54.3 nM | 37.4 nM | Cc1cc(-c2[nH]c3cc(-c4nc(N5CCNCC5)cs4)ccc3c2C)cc(C)n1 [Example 185, 2-(2-(2,6-dimethylpyridin-4-yl)-3-methyl-1H-indol-6-yl)-4-(piperazin-1-yl)thiazole] |
| 1520 nM | 1130 nM | Cc1cncc(-c2[nH]c3cc(-c4ccc(N5CCNCC5)nc4)ccc3c2C)n1 [Example 98] |
| 109 nM | 163 nM | Cc1cc(-c2[nH]c3cc(-c4cccc5c4CNC5)ccc3c2C)cc(C)n1 [Example 19] |
| 785 nM | 323 nM | Cc1cc(-c2[nH]c3cc(-c4cnn(CC5CCNCC5)c4)ccc3c2C)cc(C)n1 [Example 183] |

| EC50 (TLR9) | EC50 (TLR7) | SMILES |
| --- | --- | --- |
| 489 nM | 503 nM | Cc1ncc(-c2[nH]c3cc(-c4ccc(N5CCNCC5)nc4)ccc3c2C)cn1 [Example 82] |
| 18.2 nM | 16.3 nM | Cc1cc(-c2[nH]c3cc(-c4ccc(N5CC[C@@H](NCCO)C5)nc4)ccc3c2C)cc(C)n1 [Example 130, (R)-2-((1-(5-(2-(2,6-dimethylpyridin-4-yl)-3-methyl-1H-indol-6-yl)pyridin-2-yl)pyrrolidin-3-yl)amino)ethan-1-ol] |
| 40.2 nM | 31 nM | Cc1cc(-c2[nH]c3cc(-c4ccc(N5CCC[C@H](N)C5)nc4)ccc3c2C)cc(C)n1 [Example 26] |
| 310 nM | 26.4 nM | Cc1cc(-c2[nH]c3cc(-c4ccc(N5CCN(CCO)C(=O)C5)nc4)ccc3c2C)cc(C)n1 [Example 39] |
| 73.6 nM | 124 nM | Cc1cc(-c2[nH]c3cc(-c4cnn(C5CCNC5)c4)ccc3c2C)cc(C)n1 (stereo not drawn) [Example 17] |
| 49.1 nM | 22.8 nM | Cc1cc(-c2[nH]c3cc(-c4ccc5nc([C@H]6CCCCN6)[nH]c5c4)ccc3c2C)cc(C)n1 [Example 164] |
| 203 nM | 93.5 nM | Cc1cc(-c2[nH]c3cc(-c4ccc(N5CCN(C(=O)[C@@H]6CCNC6)CC5)nc4)ccc3c2C)cc(C)n1 [Example 139] |
| 38.4 nM | 209 nM | Cc1cc(-c2[nH]c3cc(-c4cccc(S(=O)(=O)N5CCNCC5)c4)ccc3c2C)cc(C)n1 [Example 69] |
| 69.4 nM | 72.3 nM | COCCN1CCN(c2ccc(-c3ccc4c(C)c(-c5cc(C)nc(C)c5)[nH]c4c3)cn2)CC1 [Example 117] |
| 306 nM | 200 nM | Cc1cc(-c2[nH]c3cc(-c4ccn5ccnc5c4)ccc3c2C)cc(C)n1 [Example 57] |
| 1250 nM | 14.3 nM | Cc1cc(-c2[nH]c3cc(-c4ccc(N5CCNCC5)nc4)ccc3c2C)c(C)cn1 [Example 74] |
| 24.7 nM | 14.4 nM | Cc1cc(-c2[nH]c3cc(-c4ccc(N5CCN(CC(C)(C)O)CC5)nc4)ccc3c2C)cc(C)n1 [Example 129, 1-(4-(5-(2-(2,6-dimethylpyridin-4-yl)-3-methyl-1H-indol-6-yl)pyridin-2-yl)piperazin-1-yl)-2-methylpropan-2-ol] |
| 37.3 nM | 17.7 nM | Cc1cc(-c2[nH]c3cc(-c4ccc(N5CC[C@H](N)C5)nc4)ccc3c2C)cc(C)n1 [Example 32] |
| 1070 nM | 183 nM | Cc1cc(-c2[nH]c3cc(-c4cnc5c(c4)ncn5C)ccc3c2C)cc(C)n1 [Example 46] |
| 83.4 nM | 17.7 nM | Cc1cc(-c2[nH]c3cc(-c4ccc(N5CC6CNCC6C5)nc4)ccc3c2C)cc(C)n1 (stereo not drawn) [Example 34] |
| 274 nM | 374 nM | Cc1cc(-c2[nH]c3cc(-c4cccc(C(=O)N5CC6CNCC6C5)c4)ccc3c2C)cc(C)n1 (stereo not drawn) [Example 123] |

— US20250002471A1 (Gilead Sciences, Inc., priority 2020, published 2025)
